Several values for one entry are separate records, joined by “and”; a condition that tells them apart may be missing. Identical values can stand only once. Entries after “also recorded” stand apart in the source; their conditions may differ. Like-named read-outs stand apart in the source and are kept apart here.
What was measured:
[1] = tested on: patients with severe chronic pain of tumor and non-tumor origin; test: Mean pain (0-100 NAS) during the last 7 days before each visit, clinical Phase II study; format: in vivo, human; settings: for Mean Pain, Mean V5 / Mean Pain, Mean V3: NAS 0-100; for Mean Pain, Mean V3: end of titration visit (V3, baseline before naloxone)
Protocol: (§1) The method of the present invention and analog scales of the present invention were employed in a clinical Phase II study conducted in Europe.
(§2) For some analyses, the last observation was carried forward for those ITT subjects who discontinued after Visit 4 (ITT/LOCF). In other instances, only the available data were used (ITT non-missing).
(§3) The Per Protocol (PP) population included all randomized patients who completed the study (including the follow-up phase) without major protocol violations. […] Only deviations from the visit window of the maintenance phase visits (visit 4 and 5) were regarded as major protocol violations. Deviations from the other visits were regarded as minor protocol violations. […] 3. Primary Efficacy Variables
(§4) a) Mean Pain during the last 7 days prior to each visit, based on the patient's twice-daily assessment of pain intensity using the 0-100 numerical analogue scale (NAS) (0=no pain and 100=worst imaginable pain). Mean Pain was calculated for each study visit as the mean value of the daily mean values of all patient's diary entries from the last 7 days. b) Mean bowel function: patient's assessment, at each study visit, of bowel function during the last 7 days prior to each visit. Mean bowel function was calculated from the mean of the three 0-100 NAS scores: ease of defecation (0=easy/no difficulty, 100=severe difficulty), feeling of incomplete bowel evacuation (0=not at all, 100=very strong), and judgment of constipation (0=not at all, 100=very strong). 4. Analgesic Efficacy Results

[2] = tested on: patients with severe chronic pain of tumor and non-tumor origin; settings: for Mean Bowel Function Score, Mean V3: end of titration visit (V3, baseline before naloxone); for mean bowel function (±SD) at Visit 4: Visit 4 (after 1 week of naloxone); for mean bowel function (±SD) at the end of the maintenance phase: PP population
Protocol: as §1, §2, §3, §4
Mean bowel function was calculated for each study visit from the mean of the three NAS values ease/difficulty of defecation, feeling of incomplete bowel evacuation and judgment of constipation.
In addition, two-sided 95% CIs (CI, confidence interval) for the difference in means between the treatment groups were provided. […] These analyses were performed for the ITT and PP populations.
The parameter estimates derived were taken to display a surface plot of the whole dose range investigated. Moreover, a contour plot of the bowel function with a granulation of 10 was performed.

## C=CCN1CC[C@]23c4c5ccc(O)c4O[C@H]2C(=O)CC[C@@]3(O)[C@H]1C5 [Naloxone, naloxone]
[1]; ITT non-missing, end of maintenance visit (V5, 4 weeks), naloxone 10 mg/day plus oxycodone 40-80 mg/day
  Mean Pain, Mean V5: 37.2
[1]; ITT non-missing, end of maintenance visit (V5, 4 weeks), naloxone 20 mg/day plus oxycodone 40-80 mg/day
  Mean Pain, Mean V5: 37.5
[1]; ITT non-missing, end of maintenance visit (V5, 4 weeks), naloxone 40 mg/day plus oxycodone 40-80 mg/day
  Mean Pain, Mean V5: 38.7
[1]; ITT non-missing, naloxone 10 mg/day group, oxycodone 40-80 mg/day
  Mean Pain, Mean V3: 35.9
[1]; ITT non-missing, naloxone 20 mg/day group, oxycodone 40-80 mg/day
  Mean Pain, Mean V3: 39.8
[1]; ITT non-missing, naloxone 40 mg/day group, oxycodone 40-80 mg/day
  Mean Pain, Mean V3: 38.1
[1]; PP, end of maintenance visit (V5), naloxone 10 mg/day plus oxycodone 40-80 mg/day
  Mean Pain, Mean V5: 38.8
[1]; PP, end of maintenance visit (V5), naloxone 20 mg/day plus oxycodone 40-80 mg/day
  Mean Pain, Mean V5: 36.1
[1]; PP, end of maintenance visit (V5), naloxone 40 mg/day plus oxycodone 40-80 mg/day
  Mean Pain, Mean V5: 38.7
[1]; PP, naloxone 10 mg/day group
  Mean Pain, Mean V3: 38.0
[1]; PP, naloxone 20 mg/day group
  Mean Pain, Mean V3: 40.1
[1]; PP, naloxone 40 mg/day group
  Mean Pain, Mean V3: 39.0
[1]; end of maintenance, naloxone 10-40 mg/day added to oxycodone 40-80 mg/day
  Analgesic efficacy / mean pain, active naloxone versus naloxone placebo (in words): did not point to a difference in analgesic efficacy; also recorded: no evidence of changes in mean pain with varying amounts of naloxone
[2]; ITT (non-missing), end of maintenance (V5, 4 weeks), naloxone 10 mg/day plus oxycodone 40-80 mg/day, NAS 0-100, higher = worse
  Mean Bowel Function Score, Mean V5: 40.3
[2]; ITT (non-missing), end of maintenance (V5, 4 weeks), naloxone 10 mg/day plus oxycodone 40-80 mg/day, NAS 0-100, higher = worse, listed as naloxone
  Mean Bowel Function Score, Mean V5: 40.3 (±23.09) and 40.3 (±23.1)
[2]; ITT (non-missing), end of maintenance (V5, 4 weeks), naloxone 20 mg/day plus oxycodone 40-80 mg/day, NAS 0-100, higher = worse
  Mean Bowel Function Score, Mean V5: 31.3
[2]; ITT (non-missing), end of maintenance (V5, 4 weeks), naloxone 20 mg/day plus oxycodone 40-80 mg/day, NAS 0-100, higher = worse, listed as naloxone
  Mean Bowel Function Score, Mean V5: 31.3 (±25.82) and 31.3 (±25.8)
[2]; ITT (non-missing), end of maintenance (V5, 4 weeks), naloxone 40 mg/day plus oxycodone 40-80 mg/day, NAS 0-100, higher = worse
  Mean Bowel Function Score, Mean V5: 26.1
[2]; ITT (non-missing), end of maintenance (V5, 4 weeks), naloxone 40 mg/day plus oxycodone 40-80 mg/day, NAS 0-100, higher = worse, listed as naloxone
  Mean Bowel Function Score, Mean V5: 26.1 (±25.08) and 26.1 (±25.1)
[2]; ITT non-missing, naloxone 10 mg/day group, NAS 0-100, higher = worse
  Mean Bowel Function Score, Mean V3: 53.5
[2]; ITT non-missing, naloxone 20 mg/day group, NAS 0-100, higher = worse
  Mean Bowel Function Score, Mean V3: 51.3
[2]; ITT non-missing, naloxone 40 mg/day group, NAS 0-100, higher = worse
  Mean Bowel Function Score, Mean V3: 48.2
[2]; ITT/LOCF, end of maintenance visit (V5), naloxone 10 mg/day plus oxycodone 40-80 mg/day
  Mean Bowel Function Score, Mean V5: 40.1
[2]; ITT/LOCF, end of maintenance visit (V5), naloxone 20 mg/day plus oxycodone 40-80 mg/day
  Mean Bowel Function Score, Mean V5: 33.2
[2]; ITT/LOCF, end of maintenance visit (V5), naloxone 40 mg/day plus oxycodone 40-80 mg/day
  Mean Bowel Function Score, Mean V5: 26.5
[2]; ITT/LOCF, naloxone 10 mg/day group
  Mean Bowel Function Score, Mean V3: 53.6
[2]; ITT/LOCF, naloxone 20 mg/day group
  Mean Bowel Function Score, Mean V3: 49.9
[2]; ITT/LOCF, naloxone 40 mg/day group
  Mean Bowel Function Score, Mean V3: 47.7
[2]; ITT, naloxone 10 mg/day
  mean bowel function (±SD) at Visit 4: 42.1 (±25.53)
[2]; ITT, naloxone 20 mg/day
  mean bowel function (±SD) at Visit 4: 34.2 (±30.04)
[2]; ITT, naloxone 40 mg/day
  mean bowel function (±SD) at Visit 4: 27.9 (±22.68)
[2]; ITT, end of two-week follow-up on oxycodone only, former 40 mg naloxone group
  mean bowel function (±SD) at the end of follow-up: 42.4 (±23.19)
[2]; naloxone 10 mg/day
  mean bowel function (±SD) at the end of the maintenance phase: 39.4 (±23.44)
[2]; naloxone 20 mg/day
  mean bowel function (±SD) at the end of the maintenance phase: 29.8 (±29.29)
[2]; naloxone 40 mg/day
  mean bowel function (±SD) at the end of the maintenance phase: 29.6 (±28.34)
[2]; the two higher doses of naloxone (20 mg and 40 mg)
  effect of adding controlled release naloxone to controlled release oxycodone on mean bowel function (in words): statistically significant improvement in mean bowel function

From patent US10258235B2, “Method and device for the assessment of bowel function” (Purdue Pharma L.P., priority 2005, dated 2019)
